Test [1] deals with T1, recombinant human A2A receptors (Homo sapiens, UniProt P29274).
T1 construct: expressed in transfected cells; host or cells: Sf9 insect cells, viral infection, membranes
In words: Radioligand competition binding to recombinant human A2A receptors in Sf9 cell membranes (125I-APE or 125I-ZM241385). Particulars: read-out: A2A (nM) binding affinity. The procedure:
(§1) Sf9 cells were cultured in Grace's medium supplemented with 10% fetal bovine serum, 2.5 μg/ml amphotericin B and 50 μg/ml gentamycin in an atmosphere of 50% N2/50% O2. Viral infection was performed at a density of 2.5×10^6 cells/mL with a multiplicity of infection of two for each virus used. Infected cells were harvested 3 days post-infection and washed twice in insect PBS (PBS pH 6.3). Cells were then resuspended in lysis buffer (20 mM HEPES pH 7.5, 150 mM NaCl, 3 mM MgCl2, 1 mM β-mercaptoethanol (BME), 5 μg/mL leupeptin, 5 μg/mL pepstatin A, 1 μg/mL aprotinin, and 0.1 mM PMSF) and snap frozen for storage at −80° C. Cells were thawed on ice, brought to 30 mL total volume in lysis buffer, and burst by N2 cavitation (600 psi for 20 minutes). A low-speed centrifugation was performed to remove any unlysed cells (1000×g for 10 minutes), followed by a high-speed centrifugation (17,000×g for 30 minutes). The pellet from the final centrifugation was homogenized in buffer containing 20 mM HEPES pH 8, 100 mM NaCl, 1% glycerol, 2 μg/mL leupeptin, 2 μg/mL pepstatin A, 2 μg/mL Aprotinin, 0.1 mM PMSF, and 10 μM GDP using a small glass homogenizer followed by passage through a 26 gauge needle. Membranes were aliquoted, snap frozen in liquid N2, and stored at −80° C. Membranes from cells stably expressing the human A1 AR(CHO K1 cells) or A3 AR (HEK 293 cells) were prepared as described (Robeva et al., 1996).
(§2) Radioligand binding to recombinant human A2A receptors in Sf9 cell membranes was performed using either the radio labeled agonist, ^125I-APE (Luthin et al., 1995) or the radio labeled antagonist, ^125I-ZM241385 (^125I-ZM). To detect the high affinity, GTPγS-sensitive state of A1 and A3AR, we used the agonist, ^125I-ABA (Linden et al., 1985; Linden et al., 1993). Binding experiments were performed in triplicate with 5 μg (A2A) or 25 μg (A1 and A3) membrane protein in a total volume of 0.1 mL HE buffer (20 mM HEPES and 1 mM EDTA) with 1 U/mL adenosine deaminase and 5 mM MgCl2 with or without 50 μM GTPγS. […] Nonspecific binding was measured in the presence of 50 μM NECA. […]

For a further test, the system named is human neutrophils. In words: Human neutrophil oxidative activity, luminol-enhanced chemiluminescence (fMLP stimulated). Format: cell-based. Particulars: human neutrophil experiment as described in Example 6 without Rolipram, peak chemiluminescence, read-out: Functional. The procedure:
Chemiluminescence Methods: Luminol enhanced chemiluminescence, a measure of neutrophil oxidative activity, is dependent upon both superoxide production and mobilization of the granule enzyme myeloperoxidase. The light is emitted from unstable high-energy oxygen species such as hypochlorous acid and singlet oxygen generated by activated neutrophils.
Following incubation 100 µL aliquots of the PMN were transferred to wells (White walled clear bottom 96 well tissue culture plates Costar #3670; 2 wells/condition) containing […] and luminol (final concentration 100 µM) with or without adenosine agonist (final agonist concentrations 0.01-1000 nM). The plate was incubated 5 min (37° C.) and then fMLP ([…] in HA; final concentration […]) was added to all wells.
Peak chemiluminescence was determined with a Victor 1420 Multilabel Counter in the chemiluminescence mode using the Wallace Workstation software. Data are presented as peak chemiluminescence as percent of activity in the absence of an adenosine agonist. The EC50 was determined using PRISM software. All compounds were tested with PMNs from three separate donors.
Purified neutrophils (−98% neutrophils and >95% viable by trypan blue exclusion) containing <1 platelet per 5 neutrophils and <50 pg/ml endotoxin (limulus amebocyte lysate assay) were obtained from normal heparinized (10 U/ml) venous blood by a one step Ficoll-hypaque separation procedure (A. Ferrante et al., J. Immunol. Meth., 36, 109 (1980)).
Luminol-enhanced chemiluminescence, a measure of neutrophil oxidative activity, is dependent upon both superoxide production and mobilization of the lysosomal granule enzyme myeloperoxidase. The light is emitted from unstable high-energy oxygen species generated by activated neutrophils. […] Then luminol (1×10^−4 M) enhanced f-met-leu-phe (1 mcM) stimulated chemiluminescence was read with a Chronolog® Photometer (Crono-log Corp., Havertown, Pa.) at 37° C. for 2-4 minutes. […]

In another test the target is T2, A3 AR (Homo sapiens, UniProt P0DMS8).
T2 construct: expressed in transfected cells
T2 sequence (P0DMS8 1-318): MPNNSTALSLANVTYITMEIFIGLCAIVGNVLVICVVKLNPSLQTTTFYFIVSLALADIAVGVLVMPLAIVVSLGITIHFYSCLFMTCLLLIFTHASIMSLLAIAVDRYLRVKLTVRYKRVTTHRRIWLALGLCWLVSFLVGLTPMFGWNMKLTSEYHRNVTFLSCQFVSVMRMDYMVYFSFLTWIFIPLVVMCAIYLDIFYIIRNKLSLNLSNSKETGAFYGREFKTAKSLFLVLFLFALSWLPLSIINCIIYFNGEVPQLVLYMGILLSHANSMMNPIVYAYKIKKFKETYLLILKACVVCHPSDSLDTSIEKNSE
Description: Radioligand competition binding to human A3 adenosine receptor (125I-ABA). Particulars: membranes of HEK 293 cells expressing A3 AR, read-out: A3 (nM) binding affinity. The procedure: as §1, §2

The target of the next test is T3, human A1 AR (Homo sapiens, UniProt P30542).
T3 construct: expressed in transfected cells
T3 sequence (P30542 1-326): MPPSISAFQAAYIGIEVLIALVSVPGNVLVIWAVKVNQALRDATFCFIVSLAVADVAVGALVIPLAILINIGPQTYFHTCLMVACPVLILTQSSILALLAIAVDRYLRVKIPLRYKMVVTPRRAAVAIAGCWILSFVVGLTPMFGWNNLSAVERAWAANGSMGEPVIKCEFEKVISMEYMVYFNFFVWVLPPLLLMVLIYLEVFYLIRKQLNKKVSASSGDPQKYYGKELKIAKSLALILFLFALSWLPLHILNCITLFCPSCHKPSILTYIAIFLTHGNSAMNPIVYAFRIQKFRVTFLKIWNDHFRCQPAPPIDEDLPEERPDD
In words: Radioligand competition binding to human A1 adenosine receptor (125I-ABA). Particulars: membranes of CHO K1 cells expressing human A1 AR, read-out: A1 (nM) binding affinity. The procedure: as §1, §2

Like-named read-outs stand apart in the source and are kept apart here.

T1 sequence (P29274 whole entry): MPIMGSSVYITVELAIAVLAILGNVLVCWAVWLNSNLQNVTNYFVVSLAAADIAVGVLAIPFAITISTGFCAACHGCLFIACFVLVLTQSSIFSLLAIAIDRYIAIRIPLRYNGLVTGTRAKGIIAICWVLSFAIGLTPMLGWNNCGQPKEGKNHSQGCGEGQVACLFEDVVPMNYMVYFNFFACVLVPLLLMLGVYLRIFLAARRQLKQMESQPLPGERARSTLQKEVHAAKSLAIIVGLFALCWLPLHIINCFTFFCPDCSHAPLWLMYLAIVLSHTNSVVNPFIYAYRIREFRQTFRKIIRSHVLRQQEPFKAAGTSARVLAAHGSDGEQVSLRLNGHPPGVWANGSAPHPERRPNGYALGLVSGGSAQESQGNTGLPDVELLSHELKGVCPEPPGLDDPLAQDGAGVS

Turning to `Nc1nc(C#CC2(O)CC3CCC2C3)nc2c1ncn2[C@@H]1O[C@H](C(=O)NC2CC2)C(O)C1O` (stereo in doubt) [Example 1, 5-[6-Amino-2-(2-hydroxy-bicyclo[2.2.1]hept-2-ylethynyl)-purin-9-yl]-3,4-dihydroxy-tetrahydro-furan-2-carboxylic acid cyclopropylamide], the results for the Ki (in test [1]; at A3 AR; at human A1 AR) were 0.6 nM, 7 nM and 10 nM, respectively. For the same compound, in the test on human neutrophils (Homo sapiens, Neutrophil), the EC50 was found to be 0.9 nM.

For `Nc1nc(C#CC2(O)CC3CCC2C3)nc2c1ncn2[C@@H]1O[C@H](C(=O)NC2CC2)C(O)C1O` (stereo in doubt) [Example 2, 5-[6-Amino-2-(2-hydroxy-bicyclo[2.2.1]hept-2-ylethynyl)-purin-9-yl]-3,4-dihydroxy-tetrahydro-furan-2-carboxylic acid cyclopropylamide], the Ki in test [1] amounted to 2 nM; at A3 AR it was 12 nM; at human A1 AR it was 18 nM. Also, the EC50 with human neutrophils turned out to be 1.5 nM.

With `Nc1nc(C#CC2(O)C3CC4CC(C3)CC2C4)nc2c1ncn2[C@@H]1O[C@H](C(=O)NC2CC2)C(O)C1O` (stereo in doubt) [Example 3, 5-[6-Amino-2-(2-hydroxy-adamantan-2-ylethynyl)-purin-9-yl]-3,4-dihydroxy-tetrahydro-furan-2-carboxylic acid cyclopropylamide], the results for the Ki (in test [1]; at A3 AR; at human A1 AR) were 1 nM, 45.4 nM and 67.2 nM, respectively. The EC50 with human neutrophils (Homo sapiens, Neutrophil) was determined as 2.4 nM.

(Values after patent publication US7875595B2, “2-polycyclic propynyl adenosine analogs having A2A agonist activity” (University of Virginia Patent Foundation, priority 2004, dated 2011).)
